In paper PMC8162404, “Proteomimetic surface fragments distinguish targets by function” (Chemical Science, 2020) one finds Kd data, which are given here for 20 compounds.

Experiment [1] concerns the target T1, CaM (Bos taurus, UniProt P62157).
T1 construct: made in house; host or cells: E. coli BL21 (DE3)
The experiment is described as follows: Pull-down assay with immobilized protein and LSM libraries. Conditions: H14 library; 1:2 stoichiometry assumed; read-out: Surface mapping KD (apparent). It is filed as binding, bovine. The method in brief:
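His-tagged protein immobilized on Co-NTA resin, equilibrated 30 min at room temperature with LSM sublibraries (64 members, […]), equimolar protein to total probe. CaM buffer: 20 mM HEPES pH 7.4, 150 mM NaCl, 5 mM CaCl2. Bound fractions from HPLC-MS loss of unbound probe versus protein-free resin control; Kd derived.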

In experiment [2] the target is T2, S100B (Homo sapiens, UniProt P04271).
T2 construct: made in house; host or cells: Escherichia coli BL21(DE3)
T2 sequence (P04271 1-92): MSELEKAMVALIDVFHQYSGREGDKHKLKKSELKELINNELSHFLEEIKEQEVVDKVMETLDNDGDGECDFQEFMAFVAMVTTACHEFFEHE
Kind of experiment: Competition pull-down with native ligand RSK1 (689–735). It is filed as binding. Conditions: H14 library; competitor peptide 200 µM; read-out: Surface mapping KD (apparent), competition.

For experiment [3], the target named is T3, Gal-1 (Homo sapiens, UniProt P09382).
T3 construct: made in house; host or cells: E. coli BL21(DE3)
The experiment is described as follows: Competition pull-down with lactose. It is filed as binding. The note with it: H14 library; lactose 10 mM; read-out: Surface mapping KD (apparent), competition. In short, it runs like this:
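His6-tagged proteins immobilized on Co-NTA resin at 64 µM final with 64-member LSM foldamer sublibraries (1 M each, as printed) in pH 7.4 HEPES/NaCl buffers (Ca2+/TCEP per target), 30 min RT; competitor peptides 200 µM final, lactose 10 mM for Gal-1. Bound fractions from LC-MS loss vs protein-free resin; KD assuming 1:1 binding.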

A further experiment concerns the target T4, S100A4 (Homo sapiens, UniProt P26447).
T4 construct: made in house; host or cells: Escherichia coli BL21(DE3)
The experiment is described as follows: Pull-down assay with immobilized protein and LSM libraries. The experiment is classed as binding. The note with it: H14 library; 1:1 binding assumed; read-out: Surface mapping KD (apparent). The method in brief:
(§1)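 Buffers were HEPES pH 7.4 with 150 mM NaCl, plus 1 mM TCEP and 1 mM CaCl2 (50 mM HEPES) for S100A4 and S100B, 1 mM TCEP for Gal-1, and no additive for RecQ-WH. Immobilized protein at 64 µM was equilibrated 30 min with the LSM sublibrary, and unbound probes were measured by LC-MS.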

Experiment [4] has as its target T3, Gal-1. The description is as above. The experiment is classed as binding. The note with it: H14 library; 1:1 binding assumed; read-out: Surface mapping KD (apparent). In short, it runs like this:
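His-tagged protein immobilized on Co-NTA resin (64 µM) in 20 mM HEPES pH 7.4, 150 mM NaCl, equilibrated 30 min at room temperature with foldamer LSM sublibraries at equimolar total concentration. Unbound fractions quantified by HPLC-MS versus protein-free resin control; apparent KD assumes 1:1 binding.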

For experiment [5], the target named is T1, CaM. Kind of experiment: Competition pull-down with native ligand TRPV1-Ct15. It is filed as binding, bovine. The note with it: H14 library; competitor peptide 200 µM; read-out: Surface mapping KD (apparent), competition.
Experiment [6] addresses T2, S100B. Kind of experiment: Pull-down assay with immobilized protein and LSM libraries. It is filed as binding. The note with it: H14 library; 1:1 binding assumed; read-out: Surface mapping KD (apparent). In short, it runs like this:
as §1

T3 sequence (P09382 whole entry): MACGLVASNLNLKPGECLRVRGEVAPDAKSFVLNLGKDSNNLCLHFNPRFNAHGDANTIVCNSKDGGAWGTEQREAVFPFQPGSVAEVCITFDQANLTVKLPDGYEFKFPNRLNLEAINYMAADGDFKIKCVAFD
T4 sequence (P26447 whole entry): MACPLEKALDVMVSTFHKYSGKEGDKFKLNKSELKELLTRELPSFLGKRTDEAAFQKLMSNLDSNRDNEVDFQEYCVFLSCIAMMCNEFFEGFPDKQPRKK

Regarding `NC(=O)C[C@@H](CC(=O)N[C@H]1CCCC[C@@H]1C(N)=O)NC(=O)[C@H]1CCCC[C@@H]1NC(=O)[C@H]1CCCC[C@@H]1NC(=O)C[C@H](Cc1ccc(O)cc1)NC(=O)[C@H]1CCCC[C@@H]1N` [H14 YN], the Kd at CaM [1] came to 111 µM; on S100B [2], 476 µM; on Gal-1 [3] it was 271 µM; at S100A4 it was 435 µM; at Gal-1 [4] it was 313 µM.
On to `CSCC[C@@H](CC(=O)N[C@H]1CCCC[C@@H]1C(N)=O)NC(=O)[C@H]1CCCC[C@@H]1NC(=O)[C@H]1CCCC[C@@H]1NC(=O)C[C@H](CC(=O)O)NC(=O)[C@H]1CCCC[C@@H]1N` [H14 DM], for which the Kd at CaM [5] was 322 µM; at S100B [2], 159 µM; at Gal-1 [3] it was 397 µM.
For the compound `NC(=O)CC[C@@H](CC(=O)N[C@H]1CCCC[C@@H]1C(=O)N[C@H]1CCCC[C@@H]1C(=O)N[C@H](CC(=O)N[C@H]1CCCC[C@@H]1C(N)=O)Cc1ccc(O)cc1)NC(=O)[C@H]1CCCC[C@@H]1N` [H14 QY], the Kd at CaM [5] stood at 345 µM; on CaM [1] it was 92 µM; on S100B [2], 188 µM; at Gal-1 [3] it was 350 µM; at Gal-1 [4], 174 µM; at S100B [6] it was 166 µM.
Turning to `NC(=O)CC[C@@H](CC(=O)N[C@H]1CCCC[C@@H]1C(N)=O)NC(=O)[C@H]1CCCC[C@@H]1NC(=O)[C@H]1CCCC[C@@H]1NC(=O)C[C@H](CC(N)=O)NC(=O)[C@H]1CCCC[C@@H]1N` [H14 NQ], the Kd is 222 µM at CaM [5], 190 µM at CaM [1], 478 µM at S100B [2] and 257 µM at Gal-1 [4].
`NC(=O)C[C@@H](CC(=O)N[C@H]1CCCC[C@@H]1C(N)=O)NC(=O)[C@H]1CCCC[C@@H]1NC(=O)[C@H]1CCCC[C@@H]1NC(=O)C[C@H](CC(N)=O)NC(=O)[C@H]1CCCC[C@@H]1N` [H14 NN]: the Kd turned out to be 290 µM at CaM [5]; 162 µM at CaM [1]; 120 µM on S100B [2]; 444 µM on Gal-1 [3]; 246 µM on Gal-1 [4].
Consider `NC(=O)[C@H]1CCCC[C@@H]1NC(=O)C[C@H](Cc1ccc(O)cc1)NC(=O)[C@H]1CCCC[C@@H]1NC(=O)[C@H]1CCCC[C@@H]1NC(=O)C[C@H](CO)NC(=O)[C@H]1CCCC[C@@H]1N` [H14 SY], for which the Kd on CaM [5] is 244 µM; at CaM [1], 90 µM; on S100B [2], 109 µM; at Gal-1 [3], 348 µM; on Gal-1 [4], 318 µM; on S100B [6], 225 µM.
In the case of `NC(=O)CC[C@@H](CC(=O)N[C@H]1CCCC[C@@H]1C(N)=O)NC(=O)[C@H]1CCCC[C@@H]1NC(=O)[C@H]1CCCC[C@@H]1NC(=O)C[C@H](CO)NC(=O)[C@H]1CCCC[C@@H]1N` [H14 SQ], the Kd on CaM [5] came out at 292 µM; on CaM [1], 176 µM; at S100B [2], 445 µM; at Gal-1 [3], 460 µM; at Gal-1 [4] it was 275 µM.
Regarding `CSCC[C@@H](CC(=O)N[C@H]1CCCC[C@@H]1C(=O)N[C@H]1CCCC[C@@H]1C(=O)N[C@@H](CO)CC(=O)N[C@H]1CCCC[C@@H]1C(N)=O)NC(=O)[C@H]1CCCC[C@@H]1N` [H14 MS], the Kd at CaM [5] worked out at 431 µM; at CaM [1], 106 µM; on S100B [2], 391 µM; at S100A4 it was 320 µM.
Consider `CC[C@H](C)[C@@H](CC(=O)N[C@H]1CCCC[C@@H]1C(N)=O)NC(=O)[C@H]1CCCC[C@@H]1NC(=O)[C@H]1CCCC[C@@H]1NC(=O)C[C@H](C)NC(=O)[C@H]1CCCC[C@@H]1N` [H14 AI], for which the Kd was determined as 13 µM on CaM [1]; 238 µM at S100B [2]; 7 µM at S100A4; 248 µM at Gal-1 [4]; 108 µM on S100B [6].
Consider `CC(C)[C@@H](CC(=O)N[C@H]1CCCC[C@@H]1C(=O)N[C@H]1CCCC[C@@H]1C(=O)N[C@@H](C)CC(=O)N[C@H]1CCCC[C@@H]1C(N)=O)NC(=O)[C@H]1CCCC[C@@H]1N` [H14 VA], for which the Kd turned out to be 38 µM on CaM [1]; 393 µM on S100B [2]; 375 µM at Gal-1 [3]; 35 µM at S100A4; 114 µM at Gal-1 [4]; 299 µM at S100B [6].
With `CSCC[C@@H](CC(=O)N[C@H]1CCCC[C@@H]1C(=O)N[C@H]1CCCC[C@@H]1C(=O)N[C@@H](CC(N)=O)CC(=O)N[C@H]1CCCC[C@@H]1C(N)=O)NC(=O)[C@H]1CCCC[C@@H]1N` [H14 MN], the Kd on CaM [1] came to 122 µM; at S100B [2], 449 µM; on Gal-1 [3], 495 µM; at Gal-1 [4] it was 399 µM.
For the compound `CC(C)[C@@H](CC(=O)N[C@H]1CCCC[C@@H]1C(N)=O)NC(=O)[C@H]1CCCC[C@@H]1NC(=O)[C@H]1CCCC[C@@H]1NC(=O)C[C@H](C)NC(=O)[C@H]1CCCC[C@@H]1N` [H14 AV], the Kd stood at 42 µM on CaM [1]; 316 µM on S100B [2]; 201 µM at Gal-1 [3]; 6 µM on S100A4; 100 µM at Gal-1 [4]; 153 µM on S100B [6].
For `CC[C@H](C)[C@@H](CC(=O)N[C@H]1CCCC[C@@H]1C(=O)N[C@H]1CCCC[C@@H]1C(=O)N[C@H](CC(=O)N[C@H]1CCCC[C@@H]1C(N)=O)[C@@H](C)O)NC(=O)[C@H]1CCCC[C@@H]1N` [H14 IT], the Kd is 51 µM on CaM [1]; 373 µM at S100B [2]; 333 µM on Gal-1 [3]; 19 µM at S100A4; 185 µM on Gal-1 [4]; 142 µM on S100B [6].
In the case of `CSCC[C@@H](CC(=O)N[C@H]1CCCC[C@@H]1C(N)=O)NC(=O)[C@H]1CCCC[C@@H]1NC(=O)[C@H]1CCCC[C@@H]1NC(=O)C[C@H](C)NC(=O)[C@H]1CCCC[C@@H]1N` [H14 AM], the Kd at CaM [1] amounted to 98 µM; at S100B [2], 359 µM; at Gal-1 [3], 487 µM; at S100A4, 10 µM; at Gal-1 [4], 307 µM; on S100B [6], 256 µM.
As to `C[C@@H](O)[C@@H](CC(=O)N[C@H]1CCCC[C@@H]1C(=O)N[C@H]1CCCC[C@@H]1C(=O)N[C@@H](CC(N)=O)CC(=O)N[C@H]1CCCC[C@@H]1C(N)=O)NC(=O)[C@H]1CCCC[C@@H]1N` [H14 TN], the Kd on CaM [5] is 292 µM; at CaM [1], 176 µM; at S100B [2] it was 445 µM; on Gal-1 [3] it was 460 µM; on Gal-1 [4] it was 275 µM.
In the case of `C[C@@H](CC(=O)N[C@H]1CCCC[C@@H]1C(=O)N[C@H]1CCCC[C@@H]1C(=O)N[C@H](CC(=O)N[C@H]1CCCC[C@@H]1C(N)=O)Cc1c[nH]c2ccccc12)NC(=O)[C@H]1CCCC[C@@H]1N` [H14 AW], the Kd was 297 µM at CaM [5]; 2 µM on CaM [1]; 127 µM at S100B [2]; 42 µM on S100A4; 203 µM at Gal-1 [4]; 42 µM at S100B [6].
Consider `CSCC[C@@H](CC(=O)N[C@H]1CCCC[C@@H]1C(=O)N[C@H]1CCCC[C@@H]1C(=O)N[C@@H](CCC(N)=O)CC(=O)N[C@H]1CCCC[C@@H]1C(N)=O)NC(=O)[C@H]1CCCC[C@@H]1N` [H14 MQ], for which the Kd on CaM [5] amounted to 489 µM; at CaM [1], 145 µM; at S100B [2] it was 394 µM; on S100A4 it was 476 µM.
With `NC(=O)C[C@@H](CC(=O)N[C@H]1CCCC[C@@H]1C(=O)N[C@H]1CCCC[C@@H]1C(=O)N[C@H](CC(=O)N[C@H]1CCCC[C@@H]1C(N)=O)Cc1ccc(O)cc1)NC(=O)[C@H]1CCCC[C@@H]1N` [H14 NY], the Kd at CaM [5] stood at 270 µM; at CaM [1], 109 µM; at S100B [2], 444 µM; on Gal-1 [3], 337 µM; at Gal-1 [4] it was 210 µM; on S100B [6] it was 193 µM.
Consider `NC(=O)CC[C@@H](CC(=O)N[C@H]1CCCC[C@@H]1C(N)=O)NC(=O)[C@H]1CCCC[C@@H]1NC(=O)[C@H]1CCCC[C@@H]1NC(=O)C[C@H](Cc1ccc(O)cc1)NC(=O)[C@H]1CCCC[C@@H]1N` [H14 YQ], for which the Kd amounted to 123 µM on CaM [1]; 449 µM on S100B [2]; 439 µM on Gal-1 [3]; 227 µM at S100A4; 238 µM on Gal-1 [4]; 480 µM at S100B [6].
As to `CC(C)C[C@@H](CC(=O)N[C@H]1CCCC[C@@H]1C(=O)N[C@H]1CCCC[C@@H]1C(=O)N[C@@H](C)CC(=O)N[C@H]1CCCC[C@@H]1C(N)=O)NC(=O)[C@H]1CCCC[C@@H]1N` [H14 LA], the Kd on CaM [1] is 8 µM; on S100B [2], 294 µM; on Gal-1 [3] it was 425 µM; on S100A4 it was 34 µM; at Gal-1 [4] it was 160 µM; at S100B [6], 170 µM.
